Patent US9302999B2, “Substituted triazoles as herbicides” (E. I. DU PONT DE NEMOURS AND COMPANY, priority 2012, dated 2016)

Experiments:
[1] = test system: waterhemp_RES1 (ALS/Triazine resistant common waterhemp, Amaranthus rudis); test: Test F postemergence: waterhemp_RES1; type: in vivo; details: scale 0 to 100
Excerpt: Seeds of plant species selected from corn (Zea mays), soybean (Glycine max), velvetleaf (Abutilon theophrasti), lambsquarters (Chenopodium album), poinsettia, wild (wild poinsettia, Euphorbia heterophylla), pigweed, palmer (palmer pigweed, Amaranthus palmeri), waterhemp (common waterhemp, Amaranthus rudis), surinam grass (Brachiaria decumbens), crabgrass, Brazil (Brazilian crabgrass, Digitaria horizontalis), panicum, fall (fall panicum Panicum dichotomiflorum), crabgrass, large (large crabgrass, Digitaria sanguinalis), foxtail, giant (giant foxtail, Setaria faberii), foxtail, green (green foxtail Setaria viridis), goosegrass (Eleusine indica), ragweed (common ragweed, Ambrosia elatior), barnyardgrass (Echinochloa crus-galli), sandbur (southern sandbur, Cenchrus echinatus), arrowleaf sida (Sida rhombifolia), ryegrass, Italian (Italian ryegrass, Lolium multiflorum), dayflower, VA (Virginia (VA) dayflower, Commelina virginica), field bindweed (Convolvulus arvensis), cocklebur (common cocklebur, Xanthium strumarium), morningglory (Ipomoea coccinea), nightshade (eastern black nightshade, Solanum ptycanthum), kochia (Kochia scoparia), nutsedge, yellow (yellow nutsedge, Cyperus esculentus), johnsongrass (Sorghum halepense), smartweed (ladysthumb smartweed, Polygonum persicaria), and beggarticks (hairy beggarticks, Bidens pilosa), were planted into a silt loam soil and treated preemergence with test chemicals formulated in a non-phytotoxic solvent mixture which included a surfactant. At the same time, plants selected from these crop and weed species and also pigweed (Amaranthus retroflexus), waterhemp_RES1 (ALS/Triazine resistant common waterhemp, Amaranthus rudis) and waterhemp_RES2 (ALS/HPPD resistant common waterhemp, Amaranthus rudis) were planted in pots containing a planting medium comprising spaghnum peat moss, vermiculite, wetting agent and starter nutrients treated with postemergence applications of some of the test chemicals formulated in the same manner. Plants ranged in height from 2 to 18 cm for postemergence treatments (1- to 4-leaf stage).
Treated plants and controls were maintained in a greenhouse for 14 to 21 days, after which time all species were compared to controls and visually evaluated. Plant response ratings, summarized in Table E, are based on a scale of 0 to 100 where 0 is no effect and 100 is complete control. A dash (-) response means no test result.

[2] = test system: smartweed (ladysthumb smartweed, Polygonum persicaria); test: Test F pre-/postemergence: smartweed; type: in vivo
Procedure, shortened: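 Visual response scores, 0 meaning no effect and 100 complete control, were assigned against untreated controls 14 to 21 days after treatment. Test chemicals in a surfactant-containing non-phytotoxic solvent were applied preemergence to seeded silt loam soil or postemergence to 2–18 cm plants in peat-based medium.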

[3] = Postemergence, 250 g ai/ha, scale 0 to 100
[4] = Postemergence, 31 g ai/ha, scale 0 to 100
[5] = Postemergence, 125 g ai/ha, scale 0 to 100
[6] = Preemergence, 31 g ai/ha, scale 0 to 100, 0 no effect, 100 complete control
[7] = Preemergence, 125 g ai/ha, scale 0 to 100
[8] = Preemergence, 250 g ai/ha, scale 0 to 100

SMILES | Plant response rating, Waterhemp, Res1 ([1]; 8 g ai/ha) | Plant response rating, Waterhemp, Res1 ([1]; 16 g ai/ha) | Plant response rating, Waterhemp, Res1 ([1]; 31 g ai/ha) | Plant response rating, Waterhemp, Res1 ([1]; 62 g ai/ha) | Plant response rating, Waterhemp, Res1 ([1]; 125 g ai/ha) | Plant response rating, Smartweed [2, 3] | Plant response rating, Smartweed ([2]; Postemergence, 16 g ai/ha, scale 0 to 100) | Plant response rating, Smartweed [2, 4] | Plant response rating, Smartweed ([2]; Postemergence, 62 g ai/ha, scale 0 to 100) | Plant response rating, Smartweed [2, 5] | Plant response rating, Smartweed ([2]; Preemergence, 16 g ai/ha, scale 0 to 100, 0 no effect, 100 complete control) | Plant response rating, Smartweed [2, 6] | Plant response rating, Smartweed [2, 7] | Plant response rating, Smartweed [2, 8] | Plant response rating, Waterhemp, Res1 ([1]; 250 g ai/ha)
Cc1nn(-c2ccnc(Cl)c2)nc1Cc1ccnc(C(F)(F)F)c1 [Compound 141] | 90 | 95 | 95 | 95 | 95 |  |  |  |  |  |  |  |  |  | 
CCc1nn(-c2ccc(C(F)(F)F)cc2)nc1Oc1ccnc(C(F)(F)F)c1 [Compound 169] |  | 85 | 90 | 90 | 95 | 35 | 10 | 10 | 15 | 25 | 0 | 0 | 40 | 95 | 95
CCCc1nn(-c2ccc(F)c(F)c2)nc1Oc1ccnc(C(F)(F)F)c1 [Compound 172] |  |  | 70 |  | 95 | 70 |  | 30 |  | 60 |  | 5 | 50 | 98 | 95
CCOc1nn(-c2ccc(F)cc2)nc1Cc1ccnc(C(F)(F)F)c1 [Compound 196, 4-[[5-ethoxy-2-(4-fluorophenyl)-2H-1,2,3-triazol-4-yl]methyl]-2-(trifluoromethyl)pyridine] | 95 | 95 | 95 | 95 | 100 |  |  |  |  |  |  |  |  |  | 
